Test results as given in patent publication US8217028B2, “1,2,4-oxadiazole indole compounds” (Glaxo Group Limited, priority 2008, dated 2012).

target: T1, human S1P1 receptor (EDG1) (Homo sapiens, UniProt P21453); assay: S1P1 GTPγS assay or S1P1 Tango assay (at least one of the above assays); format: cell-based; conditions: in at least one of the S1P1 GTPγS and S1P1 Tango assays
T1 construct: expressed in transfected cells; host or cells: rat hepatoma cells (membranes, GTPγS assay) or Tango GPCR-bla U2OS cells (Tango assay)
T1 sequence (P21453 whole entry): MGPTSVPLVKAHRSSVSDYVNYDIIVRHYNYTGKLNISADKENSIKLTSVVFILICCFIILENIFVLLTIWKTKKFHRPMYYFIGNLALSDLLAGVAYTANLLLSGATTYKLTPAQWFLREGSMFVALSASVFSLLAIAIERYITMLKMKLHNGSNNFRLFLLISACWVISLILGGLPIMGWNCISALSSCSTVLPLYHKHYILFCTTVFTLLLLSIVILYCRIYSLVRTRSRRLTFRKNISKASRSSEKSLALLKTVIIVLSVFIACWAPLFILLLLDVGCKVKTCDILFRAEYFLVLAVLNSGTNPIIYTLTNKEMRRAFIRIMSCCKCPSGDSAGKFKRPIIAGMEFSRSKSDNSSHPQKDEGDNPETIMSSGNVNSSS
Method: For membrane preparations all steps were performed at 4° C. Rat hepatoma cells stably expressing the human S1P1 receptor or Rat Basophilic Leukaemia cells (RBL) stably expressing human S1P3 receptor were grown to 80% confluency before being harvested into 10 ml Phospho-Buffered Saline (PBS) and centrifuged at 1200 rpm for 5 minutes. After removal of the supernatant, the pellet was re-suspended and cells were homogenised within a glass Warning blender for 2 bursts of 15 secs in 200 mls of buffer (50 mM HEPES, 1 mM leupeptin, 25 μg/ml bacitracin, 1 mM EDTA, 1 mM PMSF, 2 μM pepstatin A). The blender was plunged into ice for 5 mins after the first burst and 10-40 mins after the final burst to allow foam to dissipate. The material was then spun at 500 g for 20 mins and the supernatant spun for 36 mins at 48,000 g. The pellet was resuspended in the same buffer as above but without PMSF and pepstatin A. The material was then forced through a 0.6 mm needle, made up to the required volume, (usually ×4 the volume of the original cell pellet), aliquoted and stored frozen at −80° C.
Human S1P1 rat hepatoma membranes (1.5 μg/well) were adhered to a wheatgerm agglutinin (WGA)-coated scintillation proximity assay (SPA) beads (0.125 mg/well) in assay buffer (HEPES 20 mM, MgCl2 10 mM, NaCl 100 mM and pH adjusted to 7.4 using KOH 5M, GDP 10 μM FAC (final assay concentration) and saponin 90 μg/ml FAC was also added).
After 30 minutes pre-coupling on ice the bead and membrane suspension was dispensed into a white Greiner polypropylene LV384-well plate (5 μl/well), containing 0.1 μl of the compound. 5 μl/well [^35S]-GTPγS (0.5 nM final radioligand conc) made up in assay buffer was then added to agonist plates. The final assay cocktail (10.1 μl) was then centrifuged at 1000 rpm for 5 minutes then read immediately on a Viewlux reader.
All test compounds were dissolved in DMSO at a concentration of 10 mM and were prepared in 100% DMSO using a 1 in 4 dilution step to provide 11 point dose response curves. The dilutions were transferred to the assay plates ensuring that the DMSO concentration was constant across the plate for all assays. All data was normalized to the mean of 16 high and 16 low control wells on each plate. A four parameter curve fit was then applied.
Recombinant EDG1-bla/U2OS cells (contain the human Endothelial Differentiation Gene 1 (EDG1) linked to a TEV protease site and a Ga14-VP16 transcription factor stably integrated into the Tango GPCR-bla U2OS parental cell line) were suspended in assay medium (Invitrogen Freestyle Expression Medium) at a density of 312, 500 cells/ml. Add 100 μl/well of the assay medium to the cell-free control wells (column 12) and 100 μl/well of the cell suspension to the test compound wells (row 2-8, column 1-10), the unstimulated control wells (DMSO) (column 11), and stimulated control wells (S1P) (row 1, column 1-10) in a Corning black-well, clear bottom 96-well plate. Cells were incubated at 37° C., 5% CO2 for 44-48 h. […]
After incubation at 37° C., 5% CO2 for 5 h, 25 μl of 6× substrate mixture (6 μl Solution A (1 mg LiveBLAzer™-FRET B/G substrate (CCF4-AM) in 912 μl DMSO) plus 60 μl Solution B plus 934 μl Solution C) was added to each well and incubate at room temperature for 2 h in dark. The plate was finally read on EnVision for two emission channels (460 nm and 530 nm). […]

SMILES	EC50
CCCCn1cc(CCC(=O)O)c2cccc(-c3noc(-c4ccc(OC(C)C)c(Cl)c4)n3)c21 [Example 29, 3-[1-butyl-7-(5-{3-chloro-4-[(1-methylethyl)oxy]phenyl}-1,2,4-oxadiazol-3-yl)-1H-indol-3-yl]propanoic acid]	< 10 µM
CC(C)Cn1cc(CCC(=O)O)c2cccc(-c3noc(-c4ccc(OC(C)C)c(Cl)c4)n3)c21 [Example 30, 3-[7-(5-{3-chloro-4-[(1-methylethyl)oxy]phenyl}-1,2,4-oxadiazol-3-yl)-1-(2-methylpropyl)-1H-indol-3-yl]propanoic acid]	< 10 µM
CC(C)Oc1ncc(-c2nc(-c3ccc4c(CN5CCC(C(=O)O)CC5)c[nH]c4c3)no2)cc1Cl [Example 78, 1-{[6-(5-{5-chloro-6-[(1-methylethyl)oxy]-3-pyridinyl}-1,2,4-oxadiazol-3-yl)-1H-indol-3-yl]methyl}-4-piperidinecarboxylic acid]	< 10 µM

Now from value to compound:

EC50	SMILES
< 10 µM	CC(C)Oc1ccc(-c2nc(-c3ccc4[nH]c(C(=O)O)cc4c3)no2)cc1Cl [Example 8, Sodium 5-(5-{3-chloro-4-[(1-methylethyl)oxy]phenyl}-1,2,4-oxadiazol-3-yl)-1H-indole-2-carboxylate]
< 10 µM	COc1ccc(-c2nc(-c3cccc4c(CCC(=O)O)cn(C)c34)no2)cc1OC [Example 44, 3-(7-{5-[3,4-bis(methyloxy)phenyl]-1,2,4-oxadiazol-3-yl}-1-methyl-1H-indol-3-yl)propanoic acid]
